Measured values: US20260098061A1, “EPHA2-BINDING PENDING PEPTIDE AND COMPOSITION COMPRISING SAME” (PeptiDream Inc., priority 2022, published 2026)
Bridge positions count the residues as written; N and C are the ends. Square brackets hold non-standard residues; d marks the D form. Peptide text beside a SMILES is read from it. * marks the point of attachment. NH(1-deoxy-D-glucityl) = OC[C@@H](O)[C@@H](O)[C@H](O)[C@@H](O)CN*; Trp(1-Me,7-Cl) = Cn1cc(C[C@H](N)C(=O)O)c2cccc(Cl)c21; Ala(2-NH2-4-pyridyl) = Nc1cc(C[C@H](N)C(=O)O)ccn1; dPhe(3-CONH2) = NC(=O)c1cccc(C[C@@H](N)C(=O)O)c1; Trp(1-Me) = Cn1cc(C[C@H](N)C(=O)O)c2ccccc21; 3Pal(6-NH2) = Nc1ccc(C[C@H](N)C(=O)O)cn1; NMe3Pal = CN[C@@H](Cc1cccnc1)C(=O)O; NMeF = CN[C@@H](Cc1ccccc1)C(=O)O; hCit = NC(=O)NCCCC[C@H](N)C(=O)O; 4Pal = N[C@@H](Cc1ccncc1)C(=O)O; NMeE = CN[C@@H](CCC(=O)O)C(=O)O; Cit = NC(=O)NCCC[C@H](N)C(=O)O; NMeN = CN[C@@H](CC(N)=O)C(=O)O

Target: T1, Recombinant Human EphA2 Fc Protein (Homo sapiens, UniProt P29317)
T1 construct: purchased Elabscience
Test: SPR interaction analysis (Biacore T200), kinetics of peptides against EphA2
Type: binding
Details: Recombinant Human EphA2 Fc Protein captured by Human Antibody Capture kit; single-cycle kinetics; 25° C.; HBS-P+ buffer with 1% DMSO
Outline: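 KD derived from ka and kd, fitted on baseline-subtracted sensorgrams from single-cycle kinetics of five peptide dilutions. Running buffer: HBS-P+ (pH 7.4) plus 1% DMSO, 25° C, Biacore T200. Recombinant human EphA2-Fc held on an antibody capture surface.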

| Kd | SMILES |
| --- | --- |
| 10 to 100 nM | CC(C)C[C@@H]1NC(=O)[C@H](CC(N)=O)NC(=O)[C@H](Cc2c[nH]cn2)NC(=O)[C@H](Cc2ccccc2)NC(=O)CSC[C@@H](C(N)=O)NC(=O)[C@H](Cc2cn(C)c3ccccc23)NC(=O)[C@H](CCCCNC(N)=O)NC(=O)[C@H](Cc2cn(C)c3ccccc23)NC(=O)[C@H](Cc2ccccc2)N(C)C(=O)[C@H](CO)NC1=O [PDC_EphA2-00022417, F-H-N-L-S-MeF-W1Me-Hcit-W1Me-C-NH2] ({CH2CO}-FHNLS[NMeF][Trp(1-Me)][hCit][Trp(1-Me)]C-NH2; thioether N-10) |
| 100 to 400 nM | CC(C)C[C@@H]1NC(=O)[C@H](Cc2ccnc(N)c2)NC(=O)[C@H](Cc2ccccc2)NC(=O)CSC[C@@H](C(=O)NCC(N)=O)NC(=O)[C@H](Cc2cn(C)c3ccccc23)NC(=O)[C@H](Cc2ccccc2)N(C)C(=O)[C@H](Cc2cn(C)c3ccccc23)NC(=O)[C@H](CCCCNC(N)=O)NC1=O [PDC_EphA2-00022601, F-4Py2NH2-L-Hcit-W1Me-MeF-W1Me-C-G-NH2] ({CH2CO}-F[Ala(2-NH2-4-pyridyl)]L[hCit][Trp(1-Me)][NMeF][Trp(1-Me)]CG-NH2; thioether N-8) |
| 10 to 100 nM | CC(C)C[C@@H]1NC(=O)[C@H](CC(N)=O)NC(=O)[C@H](Cc2c[nH]cn2)NC(=O)[C@H](Cc2ccccc2)NC(=O)CSC[C@@H](C(=O)NCC(N)=O)NC(=O)[C@H](Cc2cn(C)c3ccccc23)NC(=O)[C@H](CCCCNC(N)=O)NC(=O)[C@H](Cc2cn(C)c3ccccc23)NC(=O)[C@H](Cc2ccccc2)N(C)C(=O)[C@H](CO)NC1=O [PDC_EphA2-00022606, F-H-N-L-S-MeF-W1Me-Hcit-W1Me-C-G-NH2] ({CH2CO}-FHNLS[NMeF][Trp(1-Me)][hCit][Trp(1-Me)]CG-NH2; thioether N-10) |
| 10 to 100 nM | CC(=O)NCCCC[C@H](NC(=O)[C@@H]1CSCC(=O)N[C@@H](Cc2ccccc2)C(=O)N[C@@H](Cc2c[nH]cn2)C(=O)N[C@@H](CC(N)=O)C(=O)N[C@@H](CC(C)C)C(=O)N[C@@H](CO)C(=O)N(C)[C@@H](Cc2ccccc2)C(=O)N[C@@H](Cc2cn(C)c3ccccc23)C(=O)N[C@@H](CCCCNC(N)=O)C(=O)N[C@@H](Cc2cn(C)c3ccccc23)C(=O)N1)C(N)=O [PDC_EphA2-00022607, F-H-N-L-S-MeF-W1Me-Hcit-W1Me-C-KAc-NH2] ({CH2CO}-FHNLS[NMeF][Trp(1-Me)][hCit][Trp(1-Me)]CK(Ac)-NH2; thioether N-10) |
| < 1 nM | CC(C)C[C@@H]1NC(=O)[C@H](CC(N)=O)NC(=O)[C@H](Cc2cccnc2)N(C)C(=O)[C@@H](Cc2cccc(C(N)=O)c2)NC(=O)CSC[C@@H](C(N)=O)NC(=O)[C@H](CC(N)=O)NC(=O)[C@H]([C@@H](C)O)NC(=O)[C@H](Cc2cn(C)c3ccccc23)NC(=O)[C@H](CCC(=O)NC[C@H](O)[C@@H](O)[C@H](O)[C@H](O)CO)NC(=O)[C@H](Cc2cn(C)c3c(Cl)cccc23)NC(=O)[C@H](Cc2ccccc2)N(C)C(=O)[C@H](CC(N)=O)NC1=O [PDC_EphA2-00026424, df3CON-Me3Py-N-L-N-Me3Py-W1Me7Cl-Qglucamine-W1Me-T-N-C-NH2] ({CH2CO}-[dPhe(3-CONH2)][NMe3Pal]NLN[NMeF][Trp(1-Me,7-Cl)]E(NH(1-deoxy-D-glucityl))[Trp(1-Me)]TNC-NH2; thioether N-12) |
| < 1 nM | CC(C)C[C@@H]1NC(=O)[C@H](CC(N)=O)NC(=O)[C@H](Cc2cccnc2)N(C)C(=O)[C@@H](Cc2cccc(C(N)=O)c2)NC(=O)CSC[C@@H](C(N)=O)NC(=O)[C@H](CC(N)=O)NC(=O)[C@H]([C@@H](C)O)NC(=O)[C@H](Cc2cn(C)c3ccccc23)NC(=O)[C@H](CCC(=O)NC[C@H](O)[C@@H](O)[C@H](O)[C@H](O)CO)NC(=O)[C@H](Cc2cn(C)c3c(Cl)cccc23)NC(=O)[C@H](CC(N)=O)N(C)C(=O)[C@H](CC(N)=O)NC1=O [PDC_EphA2-00026425, df3CON-Me3Py-N-L-N-MeN-W1Me7Cl-Qglucamine-W1Me-T-N-C-NH2] ({CH2CO}-[dPhe(3-CONH2)][NMe3Pal]NLN[NMeN][Trp(1-Me,7-Cl)]E(NH(1-deoxy-D-glucityl))[Trp(1-Me)]TNC-NH2; thioether N-12) |

Second part, the compound before the results:

| SMILES | Kd |
| --- | --- |
| CC(C)C[C@@H]1NC(=O)[C@H](CC(N)=O)NC(=O)[C@H](Cc2ccncc2)NC(=O)[C@H](Cc2ccccc2)NC(=O)CSC[C@@H](C(=O)NCC(N)=O)NC(=O)[C@H](Cc2cn(C)c3ccccc23)NC(=O)[C@H](Cc2ccc(N)nc2)NC(=O)[C@H](Cc2cn(C)c3ccccc23)NC(=O)[C@H](Cc2ccccc2)N(C)C(=O)[C@H](CCC(=O)O)NC1=O [PDC_EphA2-00022057-L092, F-4Py-N-L-E-MeF-W1Me-3Py6NH2-W1Me-C-G-NH2] ({CH2CO}-F[4Pal]NLE[NMeF][Trp(1-Me)][3Pal(6-NH2)][Trp(1-Me)]CG-NH2; thioether N-10) | 10 to 100 nM |
| CC(=O)NCCCC[C@H](NC(=O)[C@@H]1CSCC(=O)N[C@@H](Cc2ccccc2)C(=O)N[C@@H](Cc2ccnc(N)c2)C(=O)N[C@@H](CC(C)C)C(=O)N[C@@H](CCCCNC(N)=O)C(=O)N[C@@H](Cc2cn(C)c3ccccc23)C(=O)N(C)[C@@H](Cc2ccccc2)C(=O)N[C@@H](Cc2cn(C)c3ccccc23)C(=O)N1)C(N)=O [PDC_EphA2-00022602, F-4Py2NH2-L-Hcit-W1Me-MeF-W1Me-C-KAc-NH2] ({CH2CO}-F[Ala(2-NH2-4-pyridyl)]L[hCit][Trp(1-Me)][NMeF][Trp(1-Me)]CK(Ac)-NH2; thioether N-8) | 100 to 400 nM |
| CC(=O)NCCCC[C@@H](NC(=O)[C@@H]1CSCC(=O)N[C@@H](Cc2ccccc2)C(=O)N[C@@H](Cc2ccnc(N)c2)C(=O)N[C@@H](CC(C)C)C(=O)N[C@@H](CCCCNC(N)=O)C(=O)N[C@@H](Cc2cn(C)c3ccccc23)C(=O)N(C)[C@@H](Cc2ccccc2)C(=O)N[C@@H](Cc2cn(C)c3ccccc23)C(=O)N1)C(N)=O [PDC_EphA2-00022603, F-4Py2NH2-L-Hcit-W1Me-MeF-W1Me-C-dkAc-NH2] ({CH2CO}-F[Ala(2-NH2-4-pyridyl)]L[hCit][Trp(1-Me)][NMeF][Trp(1-Me)]C[dK](Ac)-NH2; thioether N-8) | 100 to 400 nM |
| CC(=O)NCCCC[C@@H](NC(=O)[C@@H]1CSCC(=O)N[C@@H](Cc2ccccc2)C(=O)N[C@@H](Cc2c[nH]cn2)C(=O)N[C@@H](CC(N)=O)C(=O)N[C@@H](CC(C)C)C(=O)N[C@@H](CO)C(=O)N(C)[C@@H](Cc2ccccc2)C(=O)N[C@@H](Cc2cn(C)c3ccccc23)C(=O)N[C@@H](CCCCNC(N)=O)C(=O)N[C@@H](Cc2cn(C)c3ccccc23)C(=O)N1)C(N)=O [PDC_EphA2-00022608, F-H-N-L-S-MeF-W1Me-Hcit-W1Me-C-dkAc-NH2] ({CH2CO}-FHNLS[NMeF][Trp(1-Me)][hCit][Trp(1-Me)]C[dK](Ac)-NH2; thioether N-10) | 10 to 100 nM |
| CC(C)C[C@@H]1NC(=O)[C@H](CC(N)=O)NC(=O)[C@H](Cc2ccccc2)N(C)C(=O)[C@@H](Cc2cccc(C(N)=O)c2)NC(=O)CSC[C@@H](C(N)=O)NC(=O)[C@H](CC(N)=O)NC(=O)[C@H]([C@@H](C)O)NC(=O)[C@H](Cc2cn(C)c3ccccc23)NC(=O)[C@H](CCCNC(N)=O)NC(=O)[C@H](Cc2cn(C)c3c(Cl)cccc23)NC(=O)[C@H](CCC(=O)O)N(C)C(=O)[C@H](CC(N)=O)NC1=O [PDC_EphA2-00026426, df3CON-Me3Py-N-L-N-MeN-W1Me7Cl-Cit-W1Me-T-N-C-NH2] ({CH2CO}-[dPhe(3-CONH2)][NMeF]NLN[NMeE][Trp(1-Me,7-Cl)][Cit][Trp(1-Me)]TNC-NH2; thioether N-12) | < 1 nM |
